Experimental findings from patent US6303349A, “Esterase and methods for the production of optically active chroman compounds” (Mitsui Chemicals, Inc., priority 1997, dated 2001) are described below.

For the experiment, the system named is esterase from Pseudonocardia thermophila FERM BP-6275, homogeneously purified (Example 2). The experiment can be described thus: Effect of inhibitors on the purified esterase (remaining hydrolysis of racemic 6-aminochroman-3-acetic acid methyl ester). Format: biochemical.

For `O=C(O)CN(CCN(CC(=O)O)CC(=O)O)CC(=O)O` [EDTA], the Relative activity (pH 7.2, 30 min, 5000 µM) is given as 103.
In the case of `O=S(=O)(F)Cc1ccccc1` [PMSF, phenylmethylsulfonyl fluoride], under “pH 7.2, 30 min, 100 µM”, the Relative activity is 84 and the remaining enzyme activity is 85%.
For the molecule `OC(CS)C(O)CS` (stereo not shown) [DTT], the Relative activity (inhibitor 0.1 mM, pre-incubated 30° C. 30 min, pH 7.2, reaction 55° C. 30 min, 100% = activity without inhibitors) turned out to be 102%.
